Measurements as given in patent US20250066290A1, “DHODH INHIBITORS CONTAINING A CARBOXYLIC ACID BIOISOSTERE” (IMMUNIC AG, priority 2021, published 2025).

Tests used:
[1] = tested on: SARS-CoV-2 Omicron variant; experiment: microbe, parasite or virus in culture; format: cell-based; conditions: Severe acute respiratory syndrome coronavirus 2; Caco-2 cells, dsRNA immunofluorescence; read-out: EC50 Omikron
SARS-CoV-2 Delta variant = experiment: microbe, parasite or virus in culture; format: cell-based; conditions: Severe acute respiratory syndrome coronavirus 2; Caco-2 cells, dsRNA immunofluorescence

[2H]C([2H])([2H])Oc1cccc(-c2cc(F)c(NC(=O)c3ccsc3C(=O)NOC)c(F)c2)c1 [Example 9, N3-(3,5-Difluoro-3′-(methoxy-d3)-[1,1′-biphenyl]-4-yl)-N2-methoxythiophene-2,3-di-carboxamide]
EC50 [1]: < 3 nM | EC50 (SARS-CoV-2 Delta variant): < 3 nM
